From BindingDB's records for patent US9328118 (Astellas Pharma Inc, 2016)

Target: Cathepsin S (Homo sapiens, UniProt P25774)
Assay: Inhibition Assay
Procedure: 5 μL of a human cathepsin S enzyme (R&D1183-CY-010) was added to a 96-well plate so as to be 20 ng/well.

Chain of Cathepsin S (P25774 whole entry): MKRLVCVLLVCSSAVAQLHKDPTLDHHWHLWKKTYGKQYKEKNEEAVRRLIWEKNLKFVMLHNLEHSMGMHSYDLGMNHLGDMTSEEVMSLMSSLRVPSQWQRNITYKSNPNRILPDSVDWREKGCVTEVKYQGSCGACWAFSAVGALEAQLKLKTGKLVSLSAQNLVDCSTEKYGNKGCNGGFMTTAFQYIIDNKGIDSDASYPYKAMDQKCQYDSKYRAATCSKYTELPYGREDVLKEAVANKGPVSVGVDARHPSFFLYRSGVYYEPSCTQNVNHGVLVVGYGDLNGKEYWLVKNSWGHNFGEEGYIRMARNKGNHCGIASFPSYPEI

## CN(C)C(=O)CN1CCC(CCOc2ccc(-c3nc(C#N)nc4c3ncn4C)cc2C(F)(F)F)CC1 [US9328118, 72]
  IC50: 1.6 nM
